Data from patent publication US11259516B2, “Method and apparatus for capsular delivery to plants” (priority 2017, dated 2022).

Legend:
[1] = system: Eucalyptus dunnii (Dunn's White Gum); test: Case 3: dose rate effect of Di-Bak G on Eucalyptus dunnii, field trial; assay type: in vivo; conditions: for mortality: single capsule per tree
Experimental: Generally, one capsule was inserted per 10 cm stem circumference.
Tree health was assessed on a 0-4 scale, 0 being dead and 4 being healthy. Observations were made for evidence of ‘flashback’ in nearby untreated trees.
In this trial, one, two or three capsules of glyphosate were inserted into Eucalyptus dunnii trees irrespective of their circumference. The trial was established on Brooklyn station, Upper Tooloom, near Urbenville on 26 May 2017. GPS co-ordinates were S28° 32.488′ E152° 24.778′. The trees were arranged in a similar manner, and similar in age and size, to the E. saligna trees described in Case 2. Desirable trees were marked and the other trees were treated.
This trial consisted of one replicate of 15 trees for each treatment. […] Tree health was assessed at 4 months (25 Aug. 2017) and 7 months (20 Dec. 2017). […] At the 4 month assessment, samples were collected for observation of dissolution of capsule and herbicide. Rainfall data for the closest recording station (Urbenville) was taken from the Bureau of Meteorology (BOM) internet site. No recent temperature data records were available for this site.

Acacia spp (Wattles) = system: Acacia spp (Wattles); parameters: key: X indicates that the given herbicide is suitable for controlling the given weed; conditions: cited from earlier work
[2] = system: Celtis sinensis (Chinese celtis); parameters: key: X indicates that the given herbicide is suitable for controlling the given weed; conditions: cited from earlier work
[3] = system: Gleditsia triacanthos (Honey locust); parameters: key: X indicates that the given herbicide is suitable for controlling the given weed; conditions: cited from earlier work
[4] = system: Inga edulis (Icecream tree); parameters: key: X indicates that the given herbicide is suitable for controlling the given weed; conditions: cited from earlier work
[5] = system: Koelreuteria elegans (Golden rain tree); parameters: key: X indicates that the given herbicide is suitable for controlling the given weed; conditions: cited from earlier work
[6] = system: Lycium ferocissium (African boxthom); parameters: key: X indicates that the given herbicide is suitable for controlling the given weed; conditions: cited from earlier work
[7] = system: Miconia calvescens (Velvet tree); parameters: key: X indicates that the given herbicide is suitable for controlling the given weed; conditions: cited from earlier work
Mimosa pigra (Mimosa) = system: Mimosa pigra (Mimosa); parameters: key: X indicates that the given herbicide is suitable for controlling the given weed; conditions: cited from earlier work
Phoenix spp (Palms) = system: Phoenix spp (Palms); parameters: key: X indicates that the given herbicide is suitable for controlling the given weed; conditions: cited from earlier work
[8] = system: Psidium cattleianum (Cherry guava); parameters: key: X indicates that the given herbicide is suitable for controlling the given weed; conditions: cited from earlier work
[9] = system: Ricinus communis (Castor oil plant); parameters: key: X indicates that the given herbicide is suitable for controlling the given weed; conditions: in vivo; cited from earlier work
[10] = system: Schefflera actinophyla (Umbrella tree); parameters: key: X indicates that the given herbicide is suitable for controlling the given weed; conditions: cited from earlier work
[11] = system: Senegalia catechu (Cutch tree); parameters: key: X indicates that the given herbicide is suitable for controlling the given weed; conditions: cited from earlier work
[12] = system: Senna pendula (Winter senna); parameters: key: X indicates that the given herbicide is suitable for controlling the given weed; conditions: cited from earlier work
[13] = system: Tabebuia aurea (Tabebuia); parameters: key: X indicates that the given herbicide is suitable for controlling the given weed; conditions: cited from earlier work
[14] = system: Toxicodendron succedaneum (Rhus); parameters: key: X indicates that the given herbicide is suitable for controlling the given weed; conditions: cited from earlier work
[15] = system: Triadica sebifera (Chinese tallow tree); parameters: key: X indicates that the given herbicide is suitable for controlling the given weed; conditions: cited from earlier work

O=C(O)CNCP(=O)(O)O [Glyphosate]
X: suitability of herbicide for control of weed (Acacia spp (Wattles)) | suitability of herbicide for control of weed [2] | suitability of herbicide for control of weed [3] | suitability of herbicide for control of weed [4] | suitability of herbicide for control of weed [5] | suitability of herbicide for control of weed [6] | suitability of herbicide for control of weed [7] | suitability of herbicide for control of weed (Mimosa pigra (Mimosa)) | suitability of herbicide for control of weed (Phoenix spp (Palms)) | suitability of herbicide for control of weed [8] | suitability of herbicide for control of weed [9] | suitability of herbicide for control of weed [10] | suitability of herbicide for control of weed [11] | suitability of herbicide for control of weed [12] | suitability of herbicide for control of weed [13] | suitability of herbicide for control of weed [14] | suitability of herbicide for control of weed [15]
all had been killed: treated trees killed ([1]; 2 capsules per tree, by 7 months)
killed all treated trees: treated trees killed ([1]; 3 capsules per tree, by 4 months)
~80%: mortality ([1]; by 7 months)
~90%: trees dead ([1]; 2 capsules per tree, at 4 months)
~70%: mortality ([1]; at 4 months)
